In this assay the test system is BDF1 mice, B16 melanoma s.c., survival/tumor T/C. The experiment in a line: NCI In Vivo Anticancer Drug Screen. Data for tumor model B16 Melanoma (subcutaneous) in B6D2F1 (BDF1) mice. On the procedure:
The antitumor activity of compounds was measured in mice bearing transplantable tumors. Survival or tumor size were measured and the results are expressed as the measurement made in the treated group (T) divided by the measurement made in the vehicle treated control group (C). The tumor model used in this assay is B16 Melanoma (subcutaneous) in B6D2F1 (BDF1) mice

“And” between values parts separate entries of the source, which are not always exact repeats. Equal entries are not always repeated. Inconclusive results are not listed.

For `CC1CCC(NC(=O)N(CCCl)N=O)CC1` (stereo unspecified), the T/C was 113 % of control (endpoint: median survival time, dose: 2.0 mg/kg/injection, schedule: Q02DX009 (ip), vehicle: Klucel (hydroxypropylcellulose) (HPC), higher = longer survival); 123 % of control (endpoint: median survival time, dose: 2.5 mg/kg/injection, schedule: Q04DX003 (ip), vehicle: other, higher = longer survival); 87 % of control (endpoint: median survival time, dose: 4.0 mg/kg/injection, schedule: Q01DX001 (ip), vehicle: saline with Tween-80, higher = longer survival); 104 % of control (endpoint: median survival time, dose: 5.0 mg/kg/injection, schedule: Q04DX003 (ip), vehicle: other, higher = longer survival); 87 % of control and 120 % of control (endpoint: median survival time, dose: 8.0 mg/kg/injection, schedule: Q01DX001 (ip), vehicle: saline with Tween-80, higher = longer survival); 189 % of control (endpoint: median survival time, dose: 8.0 mg/kg/injection, schedule: Q02DX009 (ip), vehicle: Klucel (hydroxypropylcellulose) (HPC), higher = longer survival). The T/C by setting is: (endpoint: median survival time, dose: 8.0 mg/kg/injection, schedule: Q04DX003 (ip), vehicle: saline with Tween-80, higher = longer survival) 106 % of control; (endpoint: median survival time, dose: 10.0 mg/kg/injection, schedule: Q01DX001 (ip), vehicle: other, higher = longer survival) 111 % of control; (endpoint: median survival time, dose: 12.0 mg/kg/injection, schedule: Q04DX003 (ip), vehicle: saline with Tween-80, higher = longer survival) 101 % of control; (endpoint: median survival time, dose: 16.0 mg/kg/injection, schedule: Q01DX001 (ip), vehicle: saline with Tween-80, higher = longer survival) 124 % of control; (endpoint: median survival time, dose: 16.0 mg/kg/injection, schedule: Q02DX009 (ip), vehicle: Klucel (hydroxypropylcellulose) (HPC), higher = longer survival) 109 % of control; (endpoint: median survival time, dose: 18.0 mg/kg/injection, schedule: Q01DX001 (ip), vehicle: saline with Tween-80, higher = longer survival) 120 % of control. For the same molecule, the T/C is 192 % of control (endpoint: median survival time, dose: 18.0 mg/kg/injection, schedule: Q04DX003 (ip), vehicle: saline with Tween-80, higher = longer survival); 192 % of control (endpoint: median survival time, dose: 20.0 mg/kg/injection, schedule: Q01DX001 (ip), vehicle: other, higher = longer survival); 223 % of control and 256 % of control (endpoint: median survival time, dose: 20.0 mg/kg/injection, schedule: Q04DX003 (ip), vehicle: other, higher = longer survival); 157 % of control (endpoint: median survival time, dose: 32.0 mg/kg/injection, schedule: Q01DX001 (ip), vehicle: saline with Tween-80, higher = longer survival); 213 % of control (endpoint: median survival time, dose: 36.0 mg/kg/injection, schedule: Q01DX001 (ip), vehicle: saline with Tween-80, higher = longer survival); 50 % of control and 72 % of control (endpoint: median tumor weight (est.), dose: 15.0 mg/kg/injection, schedule: Q01DX001 (ip), vehicle: Klucel (hydroxypropylcellulose) (HPC), higher = larger tumour). The T/C (endpoint: median tumor weight (est.), dose: 30.0 mg/kg/injection, schedule: Q01DX001 (ip), vehicle: Klucel (hydroxypropylcellulose) (HPC), higher = larger tumour) is 68 % of control and the T/C (endpoint: median tumor weight (est.), dose: 60.0 mg/kg/injection, schedule: Q01DX001 (ip), vehicle: Klucel (hydroxypropylcellulose) (HPC), higher = larger tumour) was 45 % of control.

With `CC/C(=C(/CC)c1ccc(O)cc1)c1ccc(O)cc1`, the T/C was 93 % of control (endpoint: median survival time, dose: 6.0 mg/kg/injection, schedule: Q01DX009 (ip), vehicle: Klucel (hydroxypropylcellulose) (HPC), higher = longer survival); 100 % of control (endpoint: median survival time, dose: 12.0 mg/kg/injection, schedule: Q01DX009 (ip), vehicle: Klucel (hydroxypropylcellulose) (HPC), higher = longer survival); 106 % of control (endpoint: median survival time, dose: 24.0 mg/kg/injection, schedule: Q01DX009 (ip), vehicle: Klucel (hydroxypropylcellulose) (HPC), higher = longer survival); 97 % of control (endpoint: median survival time, dose: 48.0 mg/kg/injection, schedule: Q01DX009 (ip), vehicle: Klucel (hydroxypropylcellulose) (HPC), higher = longer survival).

`CCN1/C(=C/C=C/C=C/c2sc3ccccc3[n+]2CC)Sc2ccccc21`: the T/C is 117 % of control (endpoint: median survival time, dose: 63.0 micrograms/kg/injection, schedule: Q01DX009 (ip), vehicle: saline, higher = longer survival) and 120 % of control (endpoint: median survival time, dose: 125.0 micrograms/kg/injection, schedule: Q01DX009 (ip), vehicle: saline, higher = longer survival).

In the case of `CN(C)/N=N/c1nc[nH]c1C(N)=O`, the T/C reads like this: (endpoint: median survival time, dose: 12.5 mg/kg/injection, schedule: Q01DX009 (ip), vehicle: Klucel (hydroxypropylcellulose) (HPC), higher = longer survival) 101 % of control; (endpoint: median survival time, dose: 25.0 mg/kg/injection, schedule: Q01DX009 (ip), vehicle: Klucel (hydroxypropylcellulose) (HPC), higher = longer survival) 89 % of control; (endpoint: median survival time, dose: 37.5 mg/kg/injection, schedule: Q01DX009 (ip), vehicle: saline with Tween-80, higher = longer survival) 175 % of control; (endpoint: median survival time, dose: 37.5 mg/kg/injection, schedule: Q01DX009 (ip), vehicle: saline, higher = longer survival) 110 % of control; (endpoint: median survival time, dose: 50.0 mg/kg/injection, schedule: Q01DX009 (ip), vehicle: Klucel (hydroxypropylcellulose) (HPC), higher = longer survival) 119 % of control; (endpoint: median survival time, dose: 75.0 mg/kg/injection, schedule: Q01DX009 (ip), vehicle: Klucel (hydroxypropylcellulose) (HPC), higher = longer survival) 160 % of control. The T/C was 156 % of control (endpoint: median survival time, dose: 75.0 mg/kg/injection, schedule: Q01DX009 (ip), vehicle: saline with Tween-80, higher = longer survival); 113 % of control (endpoint: median survival time, dose: 75.0 mg/kg/injection, schedule: Q01DX009 (ip), vehicle: saline, higher = longer survival); 109 % of control (endpoint: median survival time, dose: 100.0 mg/kg/injection, schedule: Q01DX009 (ip), vehicle: Klucel (hydroxypropylcellulose) (HPC), higher = longer survival); 91 % of control (endpoint: median survival time, dose: 150.0 mg/kg/injection, schedule: Q01DX009 (ip), vehicle: Klucel (hydroxypropylcellulose) (HPC), higher = longer survival); 154 % of control (endpoint: median survival time, dose: 150.0 mg/kg/injection, schedule: Q01DX009 (ip), vehicle: saline with Tween-80, higher = longer survival); 50 % of control (endpoint: median tumor weight (est.), dose: 37.0 mg/kg/injection, schedule: Q01DX009 (ip), vehicle: saline with Tween-80, higher = larger tumour). For the same molecule, the T/C reads like this: (endpoint: median tumor weight (est.), dose: 75.0 mg/kg/injection, schedule: Q01DX009 (ip), vehicle: saline with Tween-80, higher = larger tumour) 110 % of control; (endpoint: median tumor weight (est.), dose: 150.0 mg/kg/injection, schedule: Q01DX009 (ip), vehicle: Klucel (hydroxypropylcellulose) (HPC), higher = larger tumour) 59 % of control; (endpoint: median tumor weight (est.), dose: 150.0 mg/kg/injection, schedule: Q01DX009 (ip), vehicle: saline with Tween-80, higher = larger tumour) 42 % of control; (endpoint: median tumor weight (est.), dose: 300.0 mg/kg/injection, schedule: Q01DX009 (ip), vehicle: saline with Tween-80, higher = larger tumour) 43 % of control.

In the case of `Cc1c(N)nc(C(CC(N)=O)NCC(N)C(N)=O)nc1C(=O)NC(C(=O)NC(C)C(O)C(C)C(=O)NC(C(=O)NCCc1nc(-c2nc(C(=O)NCCCNC(C)c3ccccc3)cs2)cs1)C(C)O)C(OC1OC(CO)C(O)C(O)C1OC1OC(CO)C(O)C(OC(N)=O)C1O)c1cnc[nH]1` (stereo unspecified), the T/C is, setting by setting: (endpoint: median survival time, dose: 0.13 mg/kg/injection, schedule: Q01DX010 (ip), vehicle: water, higher = longer survival) 97 % of control; (endpoint: median survival time, dose: 0.25 mg/kg/injection, schedule: Q01DX009 (ip), vehicle: water, higher = longer survival) 105 % of control and 120 % of control; (endpoint: median survival time, dose: 0.25 mg/kg/injection, schedule: Q01DX010 (ip), vehicle: water, higher = longer survival) 97 % of control; (endpoint: median survival time, dose: 0.5 mg/kg/injection, schedule: Q01DX009 (ip), vehicle: water, higher = longer survival) 100 % of control; (endpoint: median survival time, dose: 0.5 mg/kg/injection, schedule: Q01DX010 (ip), vehicle: water, higher = longer survival) 124 % of control; (endpoint: median survival time, dose: 1.0 mg/kg/injection, schedule: Q01DX009 (ip), vehicle: water, higher = longer survival) 184 % of control. The T/C (endpoint: median survival time, dose: 1.0 mg/kg/injection, schedule: Q01DX010 (ip), vehicle: water, higher = longer survival) was 112 % of control; the T/C (endpoint: median survival time, dose: 2.0 mg/kg/injection, schedule: Q01DX010 (ip), vehicle: water, higher = longer survival) is 112 % of control; the T/C (endpoint: median survival time, dose: 4.0 mg/kg/injection, schedule: Q01DX010 (ip), vehicle: water, higher = longer survival) was 98 % of control; the T/C (endpoint: median survival time, dose: 8.0 mg/kg/injection, schedule: Q01DX009 (ip), vehicle: water, higher = longer survival) is 106 % of control.

For `O=c1[nH]c(=O)n(C2CC(O)C(CO)O2)cc1C(F)(F)F` (stereo unspecified), the T/C by setting is: (endpoint: median survival time, dose: 10.0 mg/kg/injection, schedule: Q01DX009 (ip), vehicle: saline, higher = longer survival) 103 % of control; (endpoint: median survival time, dose: 20.0 mg/kg/injection, schedule: Q01DX009 (ip), vehicle: saline, higher = longer survival) 104 % of control and 111 % of control; (endpoint: median survival time, dose: 40.0 mg/kg/injection, schedule: Q01DX009 (ip), vehicle: saline, higher = longer survival) 106 % of control; (endpoint: median survival time, dose: 80.0 mg/kg/injection, schedule: Q01DX009 (ip), vehicle: saline, higher = longer survival) 89 % of control; (endpoint: median survival time, dose: 160.0 mg/kg/injection, schedule: Q01DX009 (ip), vehicle: saline, higher = longer survival) 111 % of control.

`O=P1(N(CCCl)CCCl)NCCCO1` (stereo unspecified): the T/C reads like this: (endpoint: median survival time, dose: 15.0 mg/kg/injection, schedule: Q04DX003 (ip), vehicle: saline, higher = longer survival) 111 % of control; (endpoint: median survival time, dose: 30.0 mg/kg/injection, schedule: Q04DX003 (ip), vehicle: saline, higher = longer survival) 123 % of control; (endpoint: median survival time, dose: 60.0 mg/kg/injection, schedule: Q04DX003 (ip), vehicle: saline, higher = longer survival) 171 % of control; (endpoint: median survival time, dose: 120.0 mg/kg/injection, schedule: Q04DX003 (ip), vehicle: saline, higher = longer survival) 193 % of control; (endpoint: median survival time, dose: 200.0 mg/kg/injection, schedule: Q01DX001 (ip), vehicle: saline, higher = longer survival) 158 % of control; (endpoint: median tumor weight (est.), dose: 50.0 mg/kg/injection, schedule: Q01DX009 (ip), vehicle: saline, higher = larger tumour) 19 % of control and 40 % of control. Further, the T/C (endpoint: median tumor weight (est.), dose: 100.0 mg/kg/injection, schedule: Q01DX009 (ip), vehicle: saline, higher = larger tumour) is 19 % of control.

`CCOC(=O)C1CCC(NC(=O)N(CCCl)N=O)CC1` (stereo unspecified): the T/C is 196 % of control (endpoint: median survival time, dose: 33.0 mg/kg/injection, schedule: Q01DX001 (ip), vehicle: gum acacia, higher = longer survival) and 192 % of control (endpoint: median survival time, dose: 44.0 mg/kg/injection, schedule: Q01DX001 (ip), vehicle: gum acacia, higher = longer survival).
